In US20250188080A1, “IMIDAZOLONYLQUINOLINE COMPOUNDS AND THERAPEUTIC USES THEREOF” (Merck Patent GmbH, priority 2019, published 2025):
pIC50: −log10 of the molar value.

Columns and labels:
[1] = tested on: pCHK2 (Cellular mechanistic ATM, HCT-116); experiment: Cellular pCHK2 assay (bleomycin-induced phospho-Thr68 CHK2); format: cell-based, human
Source text: For the identification of substances which inhibit the phosphorylation of the protein kinase CHK2 (checkpoint kinase 2) at the amino acid threonine 68, an immunofluorescence-based “high content” analysis assay was used in HCT116 cells. In vitro cell-based immunofluorescence assay for the identification of inhibitors of bleomycin-induced phosphorylation of CHK2 (phospho-Thr68) in the human colon carcinoma cell line HCT116: HCT116 cells are sown out in a defined cell density in 384-well plates in culture medium (DMEM high glucose, 2 mM GlutaMax, 1 mM Na pyruvate, 10% FCS) and incubated overnight at 37° C. and 10% of CO2. On the following day, the test substances are added in a defined concentration range (1 nM to 30 μM) in combination with 10 μM bleomycin, where the concentration of the solvent DMSO is kept constant at 0.5%. After incubation for four hours at 37° C. and 10% of CO2, the cells are fixed (5 min, 4% formaldehyde in PBS), permeabilised (10 min, 0.2% Triton X-100 in PBS) and, after blocking of nonspecific binding sites (10% goat serum, 1% BSA in PBS), incubated overnight at 4° C. with a specific anti-pCHK2 antibody (cell signaling #2661). pCHK2 (Thr68) is determined using an Alexa488-labelled secondary anti-rabbit IgG antibody. Parallel staining of DNA with propidium iodide enables determination of the cell count. The pCHK2 signal is detected using a high-content imager (Molecular Devices IMX Ultra) and automatic image analysis using the MetaXpress software belonging to the instrument. The number of cell nuclei which have a pCHK2 signal above a defined background is determined.

human ATR/ATRIP = molecular target: T1, human ATR/ATRIP (Homo sapiens, UniProt Q13535); experiment: ATR/ATRIP kinase assay; format: biochemical
T1 construct: human ATR, full length, GenBank ID: NM_001184.3; host or cells: mammalian cell line (ATR/ATRIP co-expressed); Sf21 insect cells (p53)
T1 sequence (Q13535 whole entry): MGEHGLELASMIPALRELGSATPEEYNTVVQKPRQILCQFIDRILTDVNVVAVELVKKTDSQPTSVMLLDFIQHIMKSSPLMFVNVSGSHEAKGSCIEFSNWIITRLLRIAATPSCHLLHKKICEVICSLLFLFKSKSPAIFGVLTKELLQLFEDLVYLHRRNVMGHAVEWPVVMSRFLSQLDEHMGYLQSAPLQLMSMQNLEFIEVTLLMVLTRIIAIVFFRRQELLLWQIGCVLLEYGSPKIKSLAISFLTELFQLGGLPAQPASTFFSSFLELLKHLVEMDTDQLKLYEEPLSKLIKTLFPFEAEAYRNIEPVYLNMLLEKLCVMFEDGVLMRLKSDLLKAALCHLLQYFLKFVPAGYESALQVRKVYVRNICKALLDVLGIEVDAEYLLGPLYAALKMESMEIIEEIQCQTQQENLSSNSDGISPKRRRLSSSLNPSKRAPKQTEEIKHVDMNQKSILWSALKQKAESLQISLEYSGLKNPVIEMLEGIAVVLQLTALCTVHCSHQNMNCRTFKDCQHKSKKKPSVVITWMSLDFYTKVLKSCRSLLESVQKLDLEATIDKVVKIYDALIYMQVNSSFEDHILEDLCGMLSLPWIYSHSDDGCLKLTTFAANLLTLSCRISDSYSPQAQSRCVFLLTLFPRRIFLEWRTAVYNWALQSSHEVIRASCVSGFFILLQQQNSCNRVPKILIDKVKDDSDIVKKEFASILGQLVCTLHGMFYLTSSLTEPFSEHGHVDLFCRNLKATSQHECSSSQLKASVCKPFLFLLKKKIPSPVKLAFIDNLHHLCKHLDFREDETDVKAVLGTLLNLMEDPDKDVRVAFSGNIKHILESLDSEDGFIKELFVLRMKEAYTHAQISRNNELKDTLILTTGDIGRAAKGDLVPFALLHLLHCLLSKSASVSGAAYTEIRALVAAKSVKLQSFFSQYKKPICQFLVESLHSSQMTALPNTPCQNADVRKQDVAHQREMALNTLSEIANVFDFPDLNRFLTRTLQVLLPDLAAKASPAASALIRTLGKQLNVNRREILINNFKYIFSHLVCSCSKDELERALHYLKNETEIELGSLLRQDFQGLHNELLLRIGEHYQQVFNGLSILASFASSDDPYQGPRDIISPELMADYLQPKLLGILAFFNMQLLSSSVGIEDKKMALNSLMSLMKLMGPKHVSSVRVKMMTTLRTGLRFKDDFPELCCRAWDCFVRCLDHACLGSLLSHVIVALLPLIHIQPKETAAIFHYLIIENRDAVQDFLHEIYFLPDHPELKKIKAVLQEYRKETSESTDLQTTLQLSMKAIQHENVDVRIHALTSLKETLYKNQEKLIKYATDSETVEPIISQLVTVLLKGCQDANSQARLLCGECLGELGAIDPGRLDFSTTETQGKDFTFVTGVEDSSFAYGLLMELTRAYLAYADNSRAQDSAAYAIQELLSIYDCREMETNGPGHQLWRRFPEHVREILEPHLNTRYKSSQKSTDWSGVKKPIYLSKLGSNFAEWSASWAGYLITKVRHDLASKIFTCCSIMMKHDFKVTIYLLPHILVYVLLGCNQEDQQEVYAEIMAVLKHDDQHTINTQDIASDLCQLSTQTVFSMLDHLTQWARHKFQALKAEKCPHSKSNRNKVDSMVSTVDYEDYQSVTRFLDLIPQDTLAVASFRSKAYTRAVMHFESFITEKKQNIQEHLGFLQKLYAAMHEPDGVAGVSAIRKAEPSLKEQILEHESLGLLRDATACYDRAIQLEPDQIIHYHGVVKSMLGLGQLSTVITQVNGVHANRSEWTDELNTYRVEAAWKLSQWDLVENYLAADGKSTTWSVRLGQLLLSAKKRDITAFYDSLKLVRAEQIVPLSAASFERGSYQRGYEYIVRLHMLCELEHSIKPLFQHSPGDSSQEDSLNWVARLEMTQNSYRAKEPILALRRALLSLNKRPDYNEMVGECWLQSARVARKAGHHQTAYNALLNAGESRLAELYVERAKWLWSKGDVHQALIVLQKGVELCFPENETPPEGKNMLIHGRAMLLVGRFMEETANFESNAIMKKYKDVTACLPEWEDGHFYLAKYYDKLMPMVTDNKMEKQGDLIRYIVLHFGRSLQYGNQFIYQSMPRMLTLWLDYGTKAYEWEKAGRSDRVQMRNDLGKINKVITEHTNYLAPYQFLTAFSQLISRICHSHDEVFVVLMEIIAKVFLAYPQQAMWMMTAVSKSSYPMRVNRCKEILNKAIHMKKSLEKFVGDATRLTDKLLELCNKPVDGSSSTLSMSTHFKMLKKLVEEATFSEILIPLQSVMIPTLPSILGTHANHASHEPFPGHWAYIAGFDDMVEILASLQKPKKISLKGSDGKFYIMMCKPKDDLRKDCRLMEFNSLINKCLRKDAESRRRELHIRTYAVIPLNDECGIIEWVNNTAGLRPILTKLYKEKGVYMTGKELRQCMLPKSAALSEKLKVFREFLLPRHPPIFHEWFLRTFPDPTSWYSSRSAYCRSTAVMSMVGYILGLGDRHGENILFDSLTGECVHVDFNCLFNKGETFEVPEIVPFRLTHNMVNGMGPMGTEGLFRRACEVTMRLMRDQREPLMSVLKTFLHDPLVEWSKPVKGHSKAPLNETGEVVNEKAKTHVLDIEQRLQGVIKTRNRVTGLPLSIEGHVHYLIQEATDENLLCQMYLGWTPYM
T1 sequence (Q8WXE1 whole entry partner): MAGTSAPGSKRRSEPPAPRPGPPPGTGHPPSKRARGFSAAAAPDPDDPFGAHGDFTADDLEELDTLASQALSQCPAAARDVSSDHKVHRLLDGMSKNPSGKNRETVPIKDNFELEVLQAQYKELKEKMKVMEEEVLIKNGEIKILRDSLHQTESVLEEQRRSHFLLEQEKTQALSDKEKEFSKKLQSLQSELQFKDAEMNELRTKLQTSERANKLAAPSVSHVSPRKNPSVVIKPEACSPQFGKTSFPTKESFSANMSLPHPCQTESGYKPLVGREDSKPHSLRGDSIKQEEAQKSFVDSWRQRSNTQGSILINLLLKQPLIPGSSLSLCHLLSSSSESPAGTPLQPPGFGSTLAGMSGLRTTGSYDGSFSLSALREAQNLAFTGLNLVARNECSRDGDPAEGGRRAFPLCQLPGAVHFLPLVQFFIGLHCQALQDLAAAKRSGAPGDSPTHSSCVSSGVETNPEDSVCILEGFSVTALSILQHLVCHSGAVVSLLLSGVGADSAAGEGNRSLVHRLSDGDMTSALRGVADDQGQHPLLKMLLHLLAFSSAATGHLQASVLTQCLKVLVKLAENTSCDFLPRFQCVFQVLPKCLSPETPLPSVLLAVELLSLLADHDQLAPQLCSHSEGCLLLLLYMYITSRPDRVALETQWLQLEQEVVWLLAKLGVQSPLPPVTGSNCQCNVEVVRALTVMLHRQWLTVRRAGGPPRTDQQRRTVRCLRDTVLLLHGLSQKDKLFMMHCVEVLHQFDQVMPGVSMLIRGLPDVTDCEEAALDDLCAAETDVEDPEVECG
Description: The IC50 value was determined by an ATR/ATRIP enzymatic assay. The assay comprises two steps: the enzymatic reaction and the detection step. First, a mixture of ATR/ATRIP protein (Ataxia Telangiectasia and Rad3-related protein/ATR interacting protein), the compound in question at different concentrations, p53 as substrate protein and adenosine triphosphate (ATP) are incubated in assay buffer. ATR phosphorylates p53 at Ser15 and other residues. The amount of phosphorylated p53 is then detected using specific antibodies and the TR-FRET assay technology.
In detail: The ATR/ATRIP enzymatic assay is performed as a TR-FRET-(HTRF™, Cisbio Bioassays) based 384-well assay. In a first step, purified human recombinant ATR/ATRIP (human ATR, full length, GenBank ID: NM_001184.3, and human ATRIP, full length, GenBank ID AF451323.1, co-expressed in a mammalian cell line) is incubated in assay buffer for 15 minutes at 22° C. with test compound at different concentrations or without test compound (as a negative control). The assay buffer contains 25 mM HEPES pH 8.0, 10 mM Mg(CH3COO)2, 1 mM MnCl2, 0.1% BSA, 0.01% Brij® 35, and 5 mM dithiothreitol (DTT). […] The generation of phosphorylated p53 as a result of the ATR mediated reaction in the presence of ATP is detected by using specific antibodies [labeled with the fluorophores europium (Eu) as donor and d2 as acceptor (Cisbio Bioassays)] enabling FRET. […] Following signal development for 2 h the plates are analyzed in an EnVision (PerkinElmer) microplate reader using the TRF mode with laser excitation. Upon excitation of the donor europium at 340 nm the emitted fluorescence light of the acceptor d2 at 665 nm as well as from the donor Eu at 615 nm are measured. The amount of phosphorylated p53 is directly proportional to the ratio of the amounts of emitted light i.e. the ratio of the relative fluorescence units (rfu) at 665 nm and 615 nm. […] In particular, IC50 values are determined in the usual manner by fitting a dose-response curve to the data points using nonlinear regression analysis.

[2] = Microsomal stability (intrinsic clearance), rat; format: in vitro ADME; details: for microsomal CLint: liver microsomes
Source text: A microsomal stability assay is used to measure in vitro clearance (Clint). The assay involves measuring the rate of disappearance of a compound due to its intrinsic attitude to be metabolized (“intrinsic” meaning that the disappearance is not affected by other properties like permeability, binding etc. that play a role when quantifying in vivo clearance). The microsomal stability (intrinsic clearance, Clint) and, thus, metabolic stability is generally given as μl/min/mg protein. It can be visualized as the volume of solution that 1 mg of microsomes is able to clear of the compound in one minute. The microsomal/metabolic stability of each compound was determined by measurement of the change in LC-MS/MS peak area over time. Data are fitted according to a log linear model in line with Michaelis/Menten. The Clint value is calculated from the slope (k) of the linear log transformed concentration per time plot divided by the amount of microsomes (0.5 mg/ml): Clint (μl/min/mg protein)=k*1000/protein concentration. Assay Explorer software was used to automatically calculate the slope k of the decline.

Row | pIC50 ([1]; HCT-116, 10 μM bleomycin) | pIC50 (human ATR/ATRIP) | CLint (rat) ([2]; rat microsomes) [μl/min/mg protein] | pIC50 ([1]; Homo sapiens, HCT-116, HCT-116, 10 μM bleomycin) | microsomal CLint [2] [µL/min/mg] | Compound
1 | 7.12 | < 4.55 | < 10 | – | – | COc1cc2ncc3c(c2cc1-c1cn(C)nc1C)n(-c1c(F)cncc1OC)c(=O)n3C (single isomer, unassigned) [Compound 2, 8-(1,3-Dimethyl-1H-pyrazol-4-yl)-1-(Ra)-(3-fluoro-5-methoxy-pyridin-4-yl)-7-methoxy-3-methyl-1,3-dihydro-imidazo[4,5-c]quinolin-2-one]
2 | – | 5.30 | – | 7.07 | 19 | COc1cc2ncc3c(c2cc1-c1cn(C)nc1C)n(-c1c(F)cncc1OC)c(=O)n3C [Compound Y, 8-(1,3-dimethyl-1H-pyrazol-4-yl)-1-(3-fluoro-5-methoxypyridin-4-yl)-7-methoxy-3-methyl-1,3-dihydroimidazo[4,5-c]quinolin-2-one, reference compound]
3 | 7.89 | 5.00 | – | – | < 10 | COc1cc2ncc3c(c2cc1-c1cn(C)nc1C)n(-c1c(F)cncc1OC)c(=O)n3C (single isomer, unassigned) [Compound 1, 8-(1,3-Dimethyl-1H-pyrazol-4-yl)-1-(Sa)-(3-fluoro-5-methoxy-pyridin-4-yl)-7-methoxy-3-methyl-1,3-dihydro-imidazo[4,5-c]quinolin-2-one]
